Results published in paper PMC3204160 (Journal of natural products, 2011).
Where two headings read alike, the source gives them in different places.

How the values were obtained:
recombinant human HDAC1 = recombinant human HDAC1 (Homo sapiens, UniProt Q13547); test: Two-step fluorogenic HDAC inhibition assay, HDAC1; assay type: biochemical; conditions: for times less active against HDAC1 than against HDAC3/N-CoR2: natural/oxidized prodrug form, range given for HDAC1 and HDAC2 together
recombinant human HDAC2 = recombinant human HDAC2 (Homo sapiens, UniProt Q92769); test: Two-step fluorogenic HDAC inhibition assay, HDAC2; assay type: biochemical; conditions: for times less active against HDAC2 than against HDAC3/N-CoR2: natural/oxidized prodrug form, range given for HDAC1 and HDAC2 together
[1] = target: HDAC3 (in complex with N-CoR2) (Homo sapiens, UniProt O15379); test: biochemical
recombinant human HDAC4 = recombinant human HDAC4 (Homo sapiens, UniProt P56524); test: biochemical; assay type: biochemical
recombinant human HDAC6 = target: T1, recombinant human HDAC6 (Homo sapiens, UniProt Q9UBN7); test: biochemical; assay type: biochemical; conditions: for potency towards HDAC6, times less than to HDAC1–3: reduced form
T1 sequence (Q9UBN7 1-1215): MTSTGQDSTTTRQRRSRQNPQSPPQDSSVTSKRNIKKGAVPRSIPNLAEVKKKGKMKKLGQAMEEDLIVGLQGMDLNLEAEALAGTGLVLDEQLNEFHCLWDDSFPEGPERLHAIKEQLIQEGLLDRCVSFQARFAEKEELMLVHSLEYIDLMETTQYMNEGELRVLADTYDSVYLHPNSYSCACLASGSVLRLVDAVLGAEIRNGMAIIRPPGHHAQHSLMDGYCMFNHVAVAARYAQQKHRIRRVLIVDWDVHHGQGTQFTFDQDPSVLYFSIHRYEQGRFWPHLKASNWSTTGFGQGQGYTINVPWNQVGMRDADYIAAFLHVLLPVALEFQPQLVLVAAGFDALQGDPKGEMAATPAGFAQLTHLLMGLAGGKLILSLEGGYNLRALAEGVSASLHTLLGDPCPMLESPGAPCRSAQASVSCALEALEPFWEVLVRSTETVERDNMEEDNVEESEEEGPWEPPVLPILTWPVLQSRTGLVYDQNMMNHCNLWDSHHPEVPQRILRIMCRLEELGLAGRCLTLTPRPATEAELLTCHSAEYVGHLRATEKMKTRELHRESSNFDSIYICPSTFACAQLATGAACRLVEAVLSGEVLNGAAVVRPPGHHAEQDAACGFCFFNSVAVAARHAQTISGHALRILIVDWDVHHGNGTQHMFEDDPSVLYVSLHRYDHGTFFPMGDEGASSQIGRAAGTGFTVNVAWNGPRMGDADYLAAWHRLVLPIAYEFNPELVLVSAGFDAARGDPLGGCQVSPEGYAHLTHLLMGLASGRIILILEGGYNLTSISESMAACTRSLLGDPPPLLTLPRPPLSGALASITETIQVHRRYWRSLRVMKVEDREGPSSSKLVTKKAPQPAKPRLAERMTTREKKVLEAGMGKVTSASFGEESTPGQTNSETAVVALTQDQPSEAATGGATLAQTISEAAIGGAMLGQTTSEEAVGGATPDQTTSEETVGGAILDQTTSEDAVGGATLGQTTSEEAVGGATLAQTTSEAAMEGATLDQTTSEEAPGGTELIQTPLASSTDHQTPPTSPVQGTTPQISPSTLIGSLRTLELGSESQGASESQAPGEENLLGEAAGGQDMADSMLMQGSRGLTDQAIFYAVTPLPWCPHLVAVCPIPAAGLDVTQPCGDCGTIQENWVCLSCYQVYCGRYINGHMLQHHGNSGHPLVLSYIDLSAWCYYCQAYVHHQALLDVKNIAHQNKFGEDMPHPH

recombinant human HDAC7 = target: T2, recombinant human HDAC7 (Homo sapiens, UniProt Q8WUI4); test: biochemical
T2 sequence (Q8WUI4 1-952): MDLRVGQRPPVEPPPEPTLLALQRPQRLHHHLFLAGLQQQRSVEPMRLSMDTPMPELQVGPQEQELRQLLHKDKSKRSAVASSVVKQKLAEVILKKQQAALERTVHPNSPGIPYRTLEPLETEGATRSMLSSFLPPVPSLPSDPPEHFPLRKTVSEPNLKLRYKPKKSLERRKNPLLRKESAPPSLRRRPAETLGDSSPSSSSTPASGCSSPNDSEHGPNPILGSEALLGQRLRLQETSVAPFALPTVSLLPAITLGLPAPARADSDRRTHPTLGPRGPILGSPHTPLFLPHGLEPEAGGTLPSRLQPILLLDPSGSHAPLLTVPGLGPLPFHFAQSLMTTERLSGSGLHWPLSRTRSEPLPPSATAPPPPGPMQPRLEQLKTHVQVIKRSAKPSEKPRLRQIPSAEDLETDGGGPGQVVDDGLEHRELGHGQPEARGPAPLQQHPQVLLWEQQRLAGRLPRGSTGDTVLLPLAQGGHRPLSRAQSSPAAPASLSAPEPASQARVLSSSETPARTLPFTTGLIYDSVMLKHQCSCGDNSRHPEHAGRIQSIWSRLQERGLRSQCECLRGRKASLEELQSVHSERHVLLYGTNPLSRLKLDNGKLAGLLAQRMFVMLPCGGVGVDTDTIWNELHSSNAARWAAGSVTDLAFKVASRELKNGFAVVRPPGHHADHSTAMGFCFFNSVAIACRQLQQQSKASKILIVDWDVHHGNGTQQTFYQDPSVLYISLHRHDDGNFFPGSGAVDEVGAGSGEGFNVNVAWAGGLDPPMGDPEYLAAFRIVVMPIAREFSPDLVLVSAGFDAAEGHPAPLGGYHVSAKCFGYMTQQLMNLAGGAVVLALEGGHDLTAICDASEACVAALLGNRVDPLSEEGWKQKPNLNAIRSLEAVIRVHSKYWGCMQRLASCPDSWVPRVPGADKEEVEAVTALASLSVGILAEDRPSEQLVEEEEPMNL

recombinant human HDAC8 = target: T3, recombinant human HDAC8 (Homo sapiens, UniProt Q9BY41); test: biochemical; assay type: biochemical
T3 sequence (Q9BY41 1-377): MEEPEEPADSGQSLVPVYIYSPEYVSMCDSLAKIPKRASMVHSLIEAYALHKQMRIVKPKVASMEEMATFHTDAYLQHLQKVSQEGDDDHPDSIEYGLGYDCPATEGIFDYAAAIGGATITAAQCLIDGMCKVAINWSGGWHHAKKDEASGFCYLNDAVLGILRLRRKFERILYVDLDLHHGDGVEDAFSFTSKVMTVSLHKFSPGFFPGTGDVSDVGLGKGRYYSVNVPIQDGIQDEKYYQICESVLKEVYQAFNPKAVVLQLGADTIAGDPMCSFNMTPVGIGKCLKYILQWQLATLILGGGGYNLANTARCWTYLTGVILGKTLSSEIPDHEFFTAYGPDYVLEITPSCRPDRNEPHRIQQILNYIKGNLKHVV

recombinant human HDAC9 = recombinant human HDAC9 (Homo sapiens, UniProt Q9UKV0); test: biochemical
[2] = test system: NCI-60 human cancer cell lines; test: NCI-60 anticancer drug screen and COMPARE analysis; assay type: cell-based; conditions: for over 90% of the tested NCI-60 cell lines; five concentrations 10^−4 to 10^−8 M

recombinant human HDAC4, sequence (P56524 whole entry): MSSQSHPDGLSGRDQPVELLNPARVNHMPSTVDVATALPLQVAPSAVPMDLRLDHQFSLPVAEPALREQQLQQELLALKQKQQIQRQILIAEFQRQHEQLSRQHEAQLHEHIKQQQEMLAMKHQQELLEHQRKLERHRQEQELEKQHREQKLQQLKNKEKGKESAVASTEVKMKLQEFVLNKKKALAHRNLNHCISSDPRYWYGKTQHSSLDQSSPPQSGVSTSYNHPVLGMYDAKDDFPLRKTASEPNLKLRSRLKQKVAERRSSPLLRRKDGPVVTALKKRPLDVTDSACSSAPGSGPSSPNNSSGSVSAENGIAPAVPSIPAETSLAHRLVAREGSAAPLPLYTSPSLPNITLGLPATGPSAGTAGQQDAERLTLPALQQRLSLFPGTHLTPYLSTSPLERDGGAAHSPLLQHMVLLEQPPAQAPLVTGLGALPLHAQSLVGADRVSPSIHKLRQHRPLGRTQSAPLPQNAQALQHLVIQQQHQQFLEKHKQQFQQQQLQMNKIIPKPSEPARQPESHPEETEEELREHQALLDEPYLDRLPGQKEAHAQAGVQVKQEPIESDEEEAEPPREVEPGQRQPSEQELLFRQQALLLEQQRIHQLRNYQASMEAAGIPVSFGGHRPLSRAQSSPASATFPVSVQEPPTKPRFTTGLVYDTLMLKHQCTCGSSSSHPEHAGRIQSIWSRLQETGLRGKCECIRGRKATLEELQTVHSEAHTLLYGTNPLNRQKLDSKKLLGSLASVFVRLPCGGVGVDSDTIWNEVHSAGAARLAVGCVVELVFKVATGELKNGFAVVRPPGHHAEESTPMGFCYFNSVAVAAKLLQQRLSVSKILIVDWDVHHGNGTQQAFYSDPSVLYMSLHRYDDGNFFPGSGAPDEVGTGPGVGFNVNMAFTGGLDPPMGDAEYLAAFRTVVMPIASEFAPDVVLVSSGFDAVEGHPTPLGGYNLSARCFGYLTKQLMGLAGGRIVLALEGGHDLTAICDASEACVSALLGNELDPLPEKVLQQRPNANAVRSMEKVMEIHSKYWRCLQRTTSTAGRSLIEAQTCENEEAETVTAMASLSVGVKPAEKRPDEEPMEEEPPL
recombinant human HDAC2, sequence (Q92769 whole entry): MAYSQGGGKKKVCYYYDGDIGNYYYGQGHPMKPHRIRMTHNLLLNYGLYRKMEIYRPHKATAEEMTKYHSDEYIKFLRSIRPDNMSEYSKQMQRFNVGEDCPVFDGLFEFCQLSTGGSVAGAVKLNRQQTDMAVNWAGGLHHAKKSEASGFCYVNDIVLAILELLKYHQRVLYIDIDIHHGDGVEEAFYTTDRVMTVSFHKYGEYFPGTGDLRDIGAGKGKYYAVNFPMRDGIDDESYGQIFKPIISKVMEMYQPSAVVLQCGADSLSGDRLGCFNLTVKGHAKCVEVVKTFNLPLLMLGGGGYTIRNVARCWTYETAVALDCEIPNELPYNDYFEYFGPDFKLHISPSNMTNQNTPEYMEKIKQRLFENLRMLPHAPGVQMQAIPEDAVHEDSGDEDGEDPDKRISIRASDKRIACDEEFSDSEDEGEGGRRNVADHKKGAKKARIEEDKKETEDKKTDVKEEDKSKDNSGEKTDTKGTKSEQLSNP
recombinant human HDAC1, sequence (Q13547 whole entry): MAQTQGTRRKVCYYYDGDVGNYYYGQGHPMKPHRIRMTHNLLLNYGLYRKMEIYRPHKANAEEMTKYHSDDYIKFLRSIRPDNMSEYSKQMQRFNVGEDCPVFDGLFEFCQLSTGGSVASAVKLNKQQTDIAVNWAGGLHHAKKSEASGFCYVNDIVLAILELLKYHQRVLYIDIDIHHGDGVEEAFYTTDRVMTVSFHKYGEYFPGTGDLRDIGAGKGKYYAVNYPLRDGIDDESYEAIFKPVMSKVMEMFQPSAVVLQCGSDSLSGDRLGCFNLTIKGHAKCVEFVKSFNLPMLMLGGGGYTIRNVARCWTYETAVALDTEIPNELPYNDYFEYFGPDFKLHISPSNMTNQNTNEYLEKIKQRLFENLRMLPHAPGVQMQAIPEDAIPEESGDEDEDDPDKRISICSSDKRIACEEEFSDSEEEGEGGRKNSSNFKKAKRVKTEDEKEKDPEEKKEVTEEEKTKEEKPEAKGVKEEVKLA
recombinant human HDAC9, sequence (Q9UKV0 whole entry): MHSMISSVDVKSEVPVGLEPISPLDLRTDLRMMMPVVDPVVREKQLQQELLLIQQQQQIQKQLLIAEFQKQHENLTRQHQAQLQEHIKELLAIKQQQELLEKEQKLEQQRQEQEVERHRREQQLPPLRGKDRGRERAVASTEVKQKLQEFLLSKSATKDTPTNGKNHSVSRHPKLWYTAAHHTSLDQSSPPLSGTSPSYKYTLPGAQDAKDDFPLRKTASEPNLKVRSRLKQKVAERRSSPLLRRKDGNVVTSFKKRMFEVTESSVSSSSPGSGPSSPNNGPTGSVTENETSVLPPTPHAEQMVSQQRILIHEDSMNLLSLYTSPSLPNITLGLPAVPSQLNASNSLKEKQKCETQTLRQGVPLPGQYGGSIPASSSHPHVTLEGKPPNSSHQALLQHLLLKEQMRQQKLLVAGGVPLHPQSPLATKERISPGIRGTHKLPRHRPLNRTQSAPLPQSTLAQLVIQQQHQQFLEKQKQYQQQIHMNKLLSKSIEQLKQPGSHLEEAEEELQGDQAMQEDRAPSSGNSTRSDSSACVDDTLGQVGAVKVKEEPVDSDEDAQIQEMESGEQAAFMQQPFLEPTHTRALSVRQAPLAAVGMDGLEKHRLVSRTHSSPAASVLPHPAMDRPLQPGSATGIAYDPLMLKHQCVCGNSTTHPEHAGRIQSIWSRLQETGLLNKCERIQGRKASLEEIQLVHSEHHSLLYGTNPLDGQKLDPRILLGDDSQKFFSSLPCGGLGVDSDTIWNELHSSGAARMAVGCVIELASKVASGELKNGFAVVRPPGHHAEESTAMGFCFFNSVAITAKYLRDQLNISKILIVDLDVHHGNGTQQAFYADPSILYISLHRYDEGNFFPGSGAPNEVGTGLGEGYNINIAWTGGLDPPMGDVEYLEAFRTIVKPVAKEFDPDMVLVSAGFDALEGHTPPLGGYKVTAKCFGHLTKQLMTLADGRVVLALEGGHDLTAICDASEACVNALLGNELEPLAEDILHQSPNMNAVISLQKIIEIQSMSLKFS
HDAC3 (in complex with N-CoR2), sequence (O15379 whole entry): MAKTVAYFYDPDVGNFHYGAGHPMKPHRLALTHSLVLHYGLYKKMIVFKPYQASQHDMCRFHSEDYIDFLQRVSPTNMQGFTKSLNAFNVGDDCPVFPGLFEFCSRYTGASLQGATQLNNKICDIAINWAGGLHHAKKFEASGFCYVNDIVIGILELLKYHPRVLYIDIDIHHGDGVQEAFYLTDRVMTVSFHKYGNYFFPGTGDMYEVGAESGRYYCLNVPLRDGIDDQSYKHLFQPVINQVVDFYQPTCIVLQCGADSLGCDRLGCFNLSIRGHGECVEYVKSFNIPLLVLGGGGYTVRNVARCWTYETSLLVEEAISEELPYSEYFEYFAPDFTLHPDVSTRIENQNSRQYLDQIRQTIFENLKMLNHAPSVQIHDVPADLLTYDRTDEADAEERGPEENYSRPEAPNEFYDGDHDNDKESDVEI
HDAC3 (in complex with N-CoR2), sequence (Q9Y618 395-489 partner limits assumed): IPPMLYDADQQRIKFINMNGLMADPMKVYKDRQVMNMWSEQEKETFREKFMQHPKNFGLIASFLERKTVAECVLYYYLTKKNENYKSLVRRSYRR

| Structure (SMILES) | IC50 (recombinant human HDAC1) [nM] | times less active against HDAC1 than against HDAC3/N-CoR2 (recombinant human HDAC1) | IC50 (recombinant human HDAC2) [nM] | times less active against HDAC2 than against HDAC3/N-CoR2 (recombinant human HDAC2) | IC50 [1] [nM] | IC50 (recombinant human HDAC4) [nM] | fold less potent against HDAC4 than 2* (recombinant human HDAC4) | IC50 (recombinant human HDAC6) [nM] | potency towards HDAC6, times less than to HDAC1–3 (recombinant human HDAC6) | IC50 (recombinant human HDAC7) [nM] | IC50 (recombinant human HDAC8) [nM] | fold less potent against HDAC8 than 2* (recombinant human HDAC8) | inhibition of HDAC8, times weaker than the inhibition of HDAC1–3 (recombinant human HDAC8) | IC50 (recombinant human HDAC9) [nM] | GI50 (growth inhibition) [2] | inhibition of HDAC8, times weaker than the inhibition of HDAC1–3 (recombinant human HDAC8; reduced form) |
| --- | --- | --- | --- | --- | --- | --- | --- | --- | --- | --- | --- | --- | --- | --- | --- | --- |
| CC[C@H](C)[C@H]1NC(=O)[C@H]2CSSCC/C=C/[C@H](CC(=O)N[C@H](CCSC)C(=O)N2)OC(=O)C[C@@H]1O [Compound 6, thailandepsin A] | 14 | 80–450 times | 3.5 | 80–450 times | 4.8 | 42000 | 40–90 fold | 380 | 30–100 times | 11000 | 1200 | 40–90 fold | 80–350 times | 12000 | low nanomolar concentrations | – |
| C/C=C1\NC(=O)[C@H]2CSSCC/C=C/[C@H](CC(=O)N[C@H](C(C)C)C(=O)N2)OC(=O)[C@H](C(C)C)NC1=O [Compound 2, FK228, reference compound] | 5.3 | 80–450 times | – | 80–450 times | – | 470 | – | – | 30–100 times | 3200 | – | – | – | – | – | – |
| CCCC[C@H]1NC(=O)C[C@H]2/C=C/CCSSC[C@@H](NC1=O)C(=O)N[C@H]([C@@H](C)CC)[C@@H](O)CC(=O)O2 [Compound 7, thailandepsin B] | – | 80–450 times | – | 80–450 times | – | – | – | – | 30–100 times | – | – | – | – | – | low nanomolar concentrations | 80–350 times |
